Results from ChEMBL document CHEMBL5532656, “Novel ligustilide derivatives target quorum sensing system LasR/LasB and relieve inflammatory response against Pseudomonas aeruginosa infection” (Eur J Med Chem, 2024).
The source made the active and inactive calls. The calls are words filed in the database; no cut-off is given here.

Assays:
[1] = Toxicity in BALB/c mouse assessed as effect on lung at 2 to 4 mg/kg, PO measured after 7 days by H and E staining based analysis; format: organism-based; conditions: in vivo, 168 h, dose 2-4 mg/kg, time 7 day
[2] = test system: RAW264.7; experiment: Inhibition of JNK signaling in mouse RAW264.7 cells assessed as reduction in LPS induced JNK phosphorylation by Western blot analysis; format: cell-based
[3] = Toxicity in BALB/c mouse assessed as effect on heart at 2 to 4 mg/kg, PO measured after 7 days by H and E staining based analysis; format: organism-based; conditions: in vivo, 168 h, dose 2-4 mg/kg, time 7 day
[4] = Toxicity in BALB/c mouse assessed as effect on animal health at 2 to 4 mg/kg, IG; format: organism-based; conditions: in vivo, po, dose 2-4 mg/kg
[5] = test system: Mus musculus; experiment: Anti-inflammatory activity against LPS-induced acute lung injury mouse model assessed as reduction in IL-6 mRNA expression at 1 to 2 mg/kg, po preincubated for 4 hrs followed by LPS stimulation and measured after 6 hrs; format: functional, organism-based; conditions: dose 1-2 mg/kg, time 10.0 hrs
[6] = Inhibition of quorum sensing system in Pseudomonas aeruginosa PAO1-lasB-gfp at 10 uM relative to control
[7] = test system: Mus musculus; experiment: Anti-inflammatory activity against LPS-induced acute lung injury mouse model assessed as downregulation of IL-6 level administered as po dose preincubated for 4 hrs followed by LPS stimulation and measured after 6 hrs by ELISA method; format: functional, organism-based; conditions: dose 1-2 mg/kg, time 10.0 hrs
[8] = test system: RAW264.7; experiment: Antiinflammatory activity in mouse RAW264.7 cells assessed as reduction in IL-6 mRNA expression at 2.5 to 10 uM by RT-PCR analysis; format: functional, cell-based; conditions: dose 2.5-10 µM
[9] = test system: Mus musculus; experiment: Anti-inflammatory activity against LPS-induced acute lung injury mouse model assessed as reduction in COX-2 mRNA expression at 1 to 2 mg/kg, po preincubated for 4 hrs followed by LPS stimulation and measured after 6 hrs; format: functional, organism-based; conditions: dose 1-2 mg/kg, time 10.0 hrs
[10] = Inhibition of quorum sensing system in Pseudomonas aeruginosa PAO1-lasB-gfp assessed as reduction in GFP expression incubated for 14 hrs
[11] = test system: Pseudomonas aeruginosa; experiment: Anti-biofilm activity against Pseudomonas aeruginosa PAO1 assessed as reduction in biofilm formation incubated for 24 hrs by crystal violet staning based analysis; format: functional, organism-based
[12] = test system: RAW264.7; experiment: Inhibition of ERK signaling in mouse RAW264.7 cells assessed as reduction in LPS induced ERK phosphorylation by Western blot analysis; format: cell-based
[13] = test system: RAW264.7; experiment: Antiinflammatory activity in LPS-induced mouse RAW264.7 cells assessed as inhibition of NF-kappaB p65 expression pretreated for 3 hrs followed by LPS stimulation and measured after 24 hrs by Western blot analysis; format: functional, cell-based; conditions: dose 1.25-10 µmol/L, time 27.0 hrs
[14] = species: Danio rerio; experiment: Inhibition of macrophage migration in 4 days post fertilized Zebra fish AB embryo assessed as reduction in green fluorescence at 10 micromol/L measured after 4 to 6 hrs by fluorescence microscope based analysis; format: functional, organism-based; conditions: dose 10.0 µmol/L, time […]
[15] = test system: RAW264.7; experiment: Antiinflammatory activity in LPS-induced mouse RAW264.7 cells assessed as inhibition of TNF-alpha production pretreated for 3 hrs followed by LPS stimulation and measured after 24 hrs by ELISA method; format: functional, cell-based
[16] = Toxicity in BALB/c mouse assessed as effect on kidney at 2 to 4 mg/kg, PO measured after 7 days by H and E staining based analysis; format: organism-based; conditions: in vivo, 168 h, dose 2-4 mg/kg, time 7 day
[17] = test system: RAW264.7; experiment: Antiinflammatory activity in LPS-induced mouse RAW264.7 cells assessed as decrease in iNOS expression level pretreated for 3 hrs followed by LPS stimulation and measured after 24 hrs by Western blot analysis; format: functional, cell-based; conditions: dose 1.25-10 µmol/L, time 27.0 hrs
[18] = test system: Mus musculus; experiment: Anti-inflammatory activity against LPS-induced acute lung injury mouse model assessed as downregulation of TNF-alpha level administered as po dose preincubated for 4 hrs followed by LPS stimulation and measured after 6 hrs by ELISA method; format: functional, organism-based; conditions: dose 1-2 mg/kg, time 10.0 hrs
[19] = test system: Erythrocyte; experiment: Hemolytic activity in mouse erythrocytes assessed as hemolysis at 0.625 to 10 micromol/L measured after 4 hrs by microplate reader method; format: toxicity, cell-based; conditions: dose 0.625-10 µmol/L
[20] = test system: RAW264.7; experiment: Antiinflammatory activity in LPS-induced mouse RAW264.7 cells assessed as decrease in COX-2 expression level pretreated for 3 hrs followed by LPS stimulation and measured after 24 hrs by Western blot analysis; format: functional, cell-based; conditions: dose 1.25-10 µmol/L, time 27.0 hrs
[21] = test system: RAW264.7; experiment: Antiinflammatory activity in mouse RAW264.7 cells assessed as reduction in COX-2 mRNA expression at 2.5 to 10 uM by RT-PCR analysis; format: functional, cell-based; conditions: dose 2.5-10 µM
[22] = Toxicity in Zebra fish AB embryo assessed as viability of zebrafish larvae at <50 uM measured upto 120 hrs post fertilization by stereomicroscopic analysis; design: species or system Danio rerio
[23] = test system: Erythrocyte; experiment: Hemolytic activity in human erythrocytes assessed as hemolysis at 0.625 to 10 micromol/L measured after 4 hrs by microplate reader method; format: toxicity, cell-based; conditions: dose 0.625-10 µmol/L
[24] = test system: RAW264.7; experiment: Antiinflammatory activity in mouse RAW264.7 cells assessed as reduction in TNF alpha mRNA expression at 2.5 to 10 uM by RT-PCR analysis; format: functional, cell-based; conditions: dose 2.5-10 µM
[25] = test system: Mus musculus; experiment: Protection against LPS-induced acute lung injury mouse model assessed as inhibition of alveolar wall thickening at 1 to 2 mg/kg, po preincubated for 4 hrs followed by LPS stimulation and measured after 6 hrs by H and E staining based analysis; format: functional, organism-based; conditions: dose 1-2 mg/kg, time 10.0 hrs
[26] = test system: Pseudomonas aeruginosa; experiment: Anti-biofilm activity against Pseudomonas aeruginosa PAO1 assessed as suppression of biofilm formation at 1.25 to 10 uM incubated for 24 hrs by PI staining based confocal fluorescence microscopy based analysis; format: functional, organism-based; conditions: dose 1.25-10 µM
[27] = Toxicity in BALB/c mouse assessed as effect on liver at 2 to 4 mg/kg, PO measured after 7 days by H and E staining based analysis; format: organism-based; conditions: in vivo, 168 h, dose 2-4 mg/kg, time 7 day
[28] = Toxicity in BALB/c mouse assessed as effect on spleen at 2 to 4 mg/kg, PO measured after 7 days by H and E staining based analysis; format: organism-based; conditions: in vivo, 168 h, dose 2-4 mg/kg, time 7 day
[29] = Cytotoxicity against African green monkey Vero cells assessed as reduction in cell viability at 50 uM measured after 24 hrs by MTT assay; format: toxicity, cell-based; conditions: chlorocebus sabaeus
[30] = test system: RAW264.7; experiment: Cytotoxicity against mouse RAW264.7 cells assessed as reduction in cell viability at 50 uM measured after 24 hrs by MTT assay; format: functional, cell-based
[31] = Toxicity in BALB/c mouse assessed as effect on body weight at 2 to 4 mg/kg, IG; format: organism-based; conditions: in vivo, po, dose 2-4 mg/kg
[32] = test system: Mus musculus; experiment: Anti-inflammatory activity against LPS-induced acute lung injury mouse model assessed as reduction in TNF-alpha mRNA expression at 1 to 2 mg/kg, po preincubated for 4 hrs followed by LPS stimulation and measured after 6 hrs; format: functional, organism-based; conditions: dose 1-2 mg/kg, time 10.0 hrs
[33] = test system: Mus musculus; experiment: Anti-inflammatory activity against LPS-induced acute lung injury mouse model assessed as reduction in iNOS mRNA expression at 1 to 2 mg/kg, po preincubated for 4 hrs followed by LPS stimulation and measured after 6 hrs; format: functional, organism-based; conditions: dose 1-2 mg/kg, time 10.0 hrs
[34] = test system: RAW264.7; experiment: Antiinflammatory activity in mouse RAW264.7 cells assessed as reduction in iNOS mRNA expression at 2.5 to 10 uM by RT-PCR analysis; format: functional, cell-based; conditions: dose 2.5-10 µM
[35] = test system: Mus musculus; experiment: Protection against LPS-induced acute lung injury mouse model assessed as inhibition of edema at 1 to 2 mg/kg, po preincubated for 4 hrs followed by LPS stimulation and measured after 6 hrs by H and E staining based analysis; format: functional, organism-based; conditions: dose 1-2 mg/kg, time 10.0 hrs

inhibition [6]: 51.6%
IC50 [10]: 8.7 µM
inhibition ([10]; dose 0.625-10 µM): Dose-Dependent Effect
IC50 ([11]; PAO1, 24 h): 7.4 µM
IC50 [15]: 6.2 µM
SMILES: CCCCC1(O)C2=C(C=CCC2)C(=O)N1Cc1ccc(C(F)(F)F)cc1 (configuration not stated)
Activity [1]: Non-Toxic
inhibition [2]: Active
Activity [3]: Non-Toxic
Activity [4]: Non-Toxic
Activity [5]: Active
Activity [7]: Dose-Dependent Effect
Activity [8]: Active
Activity [9]: Active
Activity ([11]; dose 0.625-10 µM): Dose-Dependent Effect
inhibition [12]: Active
Activity [13]: Dose-Dependent Effect
inhibition [14]: Active
Activity [16]: Non-Toxic
Activity [17]: Dose-Dependent Effect
Activity [18]: Dose-Dependent Effect
Activity [19]: Toxic
Activity [20]: Dose-Dependent Effect
Activity [21]: Active
Activity [22]: Non-Toxic
Activity [23]: Toxic
Activity [24]: Active
Activity [25]: Active
Activity [26]: Dose-Dependent Effect
Activity [27]: Non-Toxic
Activity [28]: Non-Toxic
Activity [29]: Toxic
Activity [30]: Active
Activity [31]: Toxic
Activity [32]: Active
Activity [33]: Active
Activity [34]: Active
Activity [35]: Active
